Structures are written as SMILES. Read-outs that look alike come from different tables or passages of the source.

The assay deals with T1, wildtype HIV-1 protease (Human immunodeficiency virus type 1 group M subtype B, UniProt P04585).
T1 construct: the wildtype HIV-1 protease (which was expressed in Escherichia coli); made in house; host or cells: Escherichia coli
Description: Assay for inhibition of microbial expressed HIV protease (Pepcleav). It counts as biochemical. An outline of the steps:
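E. coli-expressed wild-type HIV-1 protease (20 pM) preincubated 30 min at room temperature with inhibitor in pH 5.5 sodium acetate/NaCl/BSA buffer, then 400 μM Val-Ser-Gln-Asn-(βnaphthyl)Ala-Pro-Ile-Val added for 1 h at 30 °C. Quenched with formic acid; product quantified by LC-MS/MS peak area, indinavir internal standard.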

[1] abbreviates: wild type HIV-1 protease expressed in E. coli, peptide substrate, pH 5.5, mean of at least two independent experiments, read-out: Pepcleav.

For `COC(=O)N[C@H](C(=O)Nc1ccccc1CC[C@@H]1CN[C@H](CNC(=O)OC2CCOC2)CO1)C(c1ccccc1)c1ccccc1` (stereo partly drawn) [Example 84, Nα-(methoxycarbonyl)-β-phenyl-N-(2-{2-[(2R,5R)-5-({[(tetrahydrofuran-3-yloxy)carbonyl]amino}methyl)morpholin-2-yl]ethyl}phenyl)-L-phenylalaninamide], under setting [1], the IC50 was 670 nM.

As to `N[C@H](C(=O)Nc1cncc(F)c1CC[C@@H]1CN[C@H](COC(=O)N[C@@H]2COC[C@@H]2F)CO1)C(c1ccc(F)cc1)c1ccc(F)cc1` [Example 211], the IC50 under setting [1] amounted to 12 nM.

For `COC(=O)N[C@H](C(=O)Nc1ccccc1CC[C@@H]1CN[C@H](COC(=O)NCc2cccc3ccncc23)CO1)C(c1ccccc1)c1ccccc1` [Example 18, methyl N-[(1S)-1-benzhydryl-2-[[2-[2-[(2R,5S)-5-(8-isoquinolylmethylcarbamoyloxymethyl)morpholin-2-yl]ethyl]phenyl]amino]-2-oxo-ethyl]carbamate], under setting [1], the IC50 is 28 nM. As to `COC(=O)N[C@H](C(=O)Nc1ccccc1CC[C@@H]1CN[C@H](CNS(=O)(=O)c2ccc(N)cc2)CO1)C(c1ccccc1)c1ccccc1` [Example 49, N-(2-{2-[(2R,5R)-5-({[(4-aminophenyl)sulfonyl]amino}methyl)morpholin-2-yl]ethyl}phenyl)-Nα-(methoxy-carbonyl)-β-phenyl-L-phenylalaninamide], the IC50 under setting [1] is 94 nM. As for `O=C(C[C@H](c1ccccc1)c1ccncc1)Nc1cccc(F)c1CC[C@@H]1CN[C@H](COC(=O)NCC(F)(F)F)CO1` [Example 162, {(3S,6R)-6-[2-(2-fluoro-6-{[(3R)-3-phenyl-3-pyridin-4-ylpropanoyl]amino}phenyl)ethyl]morpholin-3-yl}methyl (2,2,2-trifluoroethyl)carbamate], the IC50 under setting [1] came to 510 nM.

As for `COC(=O)N[C@H](C(=O)Nc1ccccc1CC[C@@H]1CN[C@H](C(=O)N2CCCC2)CO1)C(c1ccccc1)c1ccccc1` [Example 5, Nα-(methoxycarbonyl)-β-phenyl-N-(2-{2-[(2R,5S)-5-(pyrrolidin-1-ylcarbonyl)morpholin-2-yl]ethyl}phenyl)-L-phenylalaninamide], the IC50 under setting [1] is 80 nM. With `COC(=O)N[C@H](C(=O)Nc1ccccc1CC[C@@H]1CN[C@H](CNS(=O)(=O)c2ccccn2)CO1)C(c1ccccc1)c1ccccc1` [Example 48, methyl N-[(1S)-1-benzhydryl-2-oxo-2-[[2-[2-[(2R,5R)-5-[(2-pyridylsulfonylamino)methyl]morpholin-2-yl]ethyl]phenyl]amino]ethyl]carbamate], the IC50 under setting [1] came to 91 nM. On the same count and under the same terms, next, `COC(=O)N[C@H](C(=O)Nc1ccccc1CC[C@@H]1CN[C@H](C(=O)O)CO1)C(c1ccccc1)c1ccccc1` [Example 1, (3S,6R)-6-[2-(2-{[N-(methoxycarbonyl)-β-phenyl-L-phenylalanyl]amino}phenyl)ethyl]morpholine-3-carboxylic acid]: 65 nM; `COC(=O)NCC(=O)Nc1ccccc1CC[C@@H]1CO[C@H](CCc2ccccc2NC(=O)[C@@H](NC(=O)OC)C(c2ccccc2)c2ccccc2)CN1` [Example 69, methyl N-[(1S)-1-benzhydryl-2-[[2-[2-[(2R,5R)-5-[2-[2-[[2-(methoxycarbonylamino)acetyl]amino]phenyl]ethyl]morpholin-2-yl]ethyl]phenyl]amino]-2-oxo-ethyl]carbamate]: 3.4 nM. Take `COC(=O)N[C@H](C(=O)Nc1ccccc1CC[C@@H]1CN[C@H](CCc2ccccc2NC(=O)CCc2ccccc2)CO1)C(c1ccccc1)c1ccccc1` [Example 71, methyl N-[(1S)-1-benzhydryl-2-oxo-2-[[2-[2-[(2R,5R)-5-[2-[2-(3-phenylpropanoylamino)phenyl]ethyl]morpholin-2-yl]ethyl]phenyl]amino]ethyl]carbamate]: the IC50 under setting [1] came to 1.3 nM. In the case of `COC(=O)N[C@H](C(=O)Nc1ccccc1CC[C@@H]1CN[C@H](CNS(=O)(=O)c2ccccc2)CO1)C(c1ccccc1)c1ccccc1` [Example 44, Nα-(methoxycarbonyl)-β-phenyl-N-(2-{2-[(2R,5R)-5-{[(phenylsulfonyl)amino]methyl}morpholin-2-yl]ethyl}phenyl)-L-phenylalaninamide], the IC50 under setting [1] was found to be 26 nM. The same measure, in the same setting: then `COC(=O)N[C@H](C(=O)Nc1ccccc1CC[C@@H]1CN[C@H](COC(=O)N2CCCC2)CO1)C(c1ccccc1)c1ccccc1` [Example 27, [(3S,6R)-6-[2-[2-[[(2S)-2-(methoxycarbonylamino)-3,3-diphenyl-propanoyl]amino]phenyl]ethyl]morpholin-3-yl]methyl pyrrolidine-1-carboxylate], with 180 nM. Consider `COC(=O)N[C@H](C(=O)Nc1ccccc1CC[C@@H]1CN[C@H](CNS(=O)(=O)c2ccc3cnnn3c2)CO1)C(c1ccccc1)c1ccccc1` [Example 45, methyl N-[(1S)-1-benzhydryl-2-oxo-2-[[2-[2-[(2R,5R)-5-[(triazolo[1,5-a]pyridin-6-ylsulfonylamino)methyl]morpholin-2-yl]ethyl]phenyl]amino]ethyl]carbamate], for which the IC50 under setting [1] turned out to be 21 nM. For the compound `CNC(=O)OC[C@@H]1CO[C@H](CCc2ccccc2NC(=O)[C@@H](NC(=O)OC)C(c2ccccc2)c2ccccc2)CN1` [Example 30], the IC50 under setting [1] was determined as 32 nM. Compound `COC(=O)N[C@H](C(=O)Nc1ccccc1CC[C@@H]1CN[C@H](COC(=O)N[C@H]2CO[C@H]3OCC[C@H]32)CO1)C(c1ccccc1)c1ccccc1` [Example 13, N-(2-{2-[(2R,5S)-5-({[(3R,3aS,6aR)-hexahydrofuro[2,3-b]furan-3-ylcarbamoyl]oxy}methyl)morpholin-2-yl]ethyl}phenyl)-Nα-(methoxycarbonyl)-β-phenyl-L-phenylalaninamide] displayed an IC50 (Pepcleav (nM)) of 110 nM. For the compound `COC(=O)N[C@H](C(=O)Nc1ccccc1CC[C@@H]1CN[C@H](COC(=O)NC(C2CC2)C(F)(F)F)CO1)C(c1ccccc1)c1ccccc1` (stereo partly drawn) [Example 31, N-(2-{2-[(2R,5S)-5-({[(1-cyclopropyl-2,2,2 trifluoroethyl)carbamoyl]oxy}methyl)morpholin-2-yl]ethyl}phenyl)-Nα-(methoxycarbonyl)-β-phenyl-L-phenylalaninamide], under setting [1], the IC50 turned out to be 29 nM.

For the compound `COCC(=O)Nc1ccccc1CC[C@@H]1CO[C@H](CCc2ccccc2NC(=O)[C@@H](NC(=O)OC)C(c2ccccc2)c2ccccc2)CN1` [Example 70, methyl N-[(1S)-1-benzhydryl-2-[[2-[2-[(2R,5R)-5-[2-[2-[(2-methoxyacetyl)amino]phenyl]ethyl]morpholin-2-yl]ethyl]phenyl]amino]-2-oxo-ethyl]carbamate], the IC50 under setting [1] worked out at 24 nM. As to `COC(=O)N[C@H](C(=O)Nc1ccccc1CC[C@@H]1CN[C@H](COC(=O)NCC(F)(F)F)CO1)C(c1ccccc1)c1ccccc1` [Example 17, methyl N-[(1S)-1-benzhydryl-2-oxo-2-[[2-[2-[(2R,5S)-5-(2,2,2-trifluoroethylcarbamoyloxymethyl)morpholin-2-yl]ethyl]phenyl]amino]ethyl]carbamate], the IC50 under setting [1] amounted to 27 nM. Still for that read-out and setting: next, `COC(=O)N[C@H](C(=O)Nc1ccccc1CC[C@@H]1CN[C@H](CNC(=O)c2cc3ncccn3n2)CO1)C(c1ccccc1)c1ccccc1` [Example 59, methyl N-[(1S)-1-benzhydryl-2-oxo-2-[[2-[2-[(2R,5R)-5-[(pyrazolo[1,5-a]pyrimidine-2-carbonylamino)methyl]morpholin-2-yl]ethyl]phenyl]amino]ethyl] carbamate]: 71 nM. For `N[C@@H](Cc1ccccc1Cl)C(=O)Nc1cccc(F)c1CC[C@@H]1CN[C@H](COC(=O)NCc2ccc(F)cc2)CO1` [Example 204, 2-chloro-N-(3-fluoro-2-{2-[(2R,5S)-5-({[(4-fluorobenzyl)carbamoyl]oxy}methyl)morpholin-2-yl]ethyl}phenyl)-L-phenylalaninamide], the IC50 under setting [1] was 26 nM.

Turning to `COC(=O)N[C@H](C(=O)Nc1ccccc1CC[C@@H]1CN[C@H](CNC(=O)Nc2cccnn2)CO1)C(c1ccccc1)c1ccccc1` [Example 41, methyl N-[(1S)-1-benzhydryl-2-oxo-2-[[2-[2-[(2R,5R)-5-[(pyridazin-3-ylcarbamoyl-amino)methyl]morpholin-2-yl]ethyl]phenyl]amino]ethyl] carbamate], the IC50 under setting [1] was 2.9 nM.

`COC(=O)N[C@H](C(=O)Nc1ccccc1CC[C@@H]1CN[C@H](C(=O)NC(C)(C)C)CO1)C(c1ccccc1)c1ccccc1` [Example 8, N-(2-{2-[(2R,5S)-5-(tert-butylcarbamoyl)morpholin-2-yl]ethyl}phenyl)-Nα-(methoxycarbonyl)-β-phenyl-L-phenylalaninamide]: the IC50 under setting [1] worked out at 41 nM.

Consider `COC(=O)N[C@H](C(=O)Nc1ccccc1CC[C@@H]1CN[C@H](COC(=O)NCc2cccnc2)CO1)C(c1ccccc1)c1ccccc1` [Example 20, methyl N-[(1S)-1-benzhydryl-2-oxo-2-[[2-[2-[(2R,5S)-5-(3-pyridylmethylcarbamoyloxymethyl)morpholin-2-yl]ethyl]phenyl]amino]ethyl]carbamate], for which the IC50 under setting [1] is 78 nM. `COC(=O)N[C@H](C(=O)Nc1ccccc1CC[C@@H]1CN[C@H](CCc2ccccc2NC(=O)NCc2ccccc2)CO1)C(c1ccccc1)c1ccccc1` [Example 75, methyl N-[(1S)-1-benzhydryl-2-[[2-[2-[(2R,5R)-5-[2-[2-(benzylcarbamoylamino)phenyl]ethyl]morpholin-2-yl]ethyl]phenyl]amino]-2-oxo-ethyl]carbamate]: under setting [1], the IC50 turned out to be 4.1 nM.

The values above are taken from patent publication US9315475B2 (MERCK SHARP & DOHME CORP., priority 2011, dated 2016).
